# Measurements: PubChem BioAssay (NCI)
#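 The compound was tested at five concentrations on cells cultured in 96-well plates, with a 48-hour exposure period. TGI: concentration producing complete growth inhibition.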
# Assays:
# Experiment in all cases: growth of human tumour cells (NCI), 48 h
# HT29 colon = system: HT29 colon
# HCT-15 colon = system: HCT-15 colon
# U251 CNS = system: U251 CNS
# IGROV1 ovarian = system: IGROV1 ovarian
# HS 578T breast = system: HS 578T breast
# OVCAR-4 ovarian = system: OVCAR-4 ovarian
# SF-295 CNS = system: SF-295 CNS
# CAKI-1 renal = system: CAKI-1 renal
# RXF 393 renal = system: RXF 393 renal
# HCT-116 colon = system: HCT-116 colon
# UO-31 renal = system: UO-31 renal
# CCRF-CEM leukemia = system: CCRF-CEM leukemia
# MDA-MB-435 = system: MDA-MB-435
# HOP-92 NSCLC = system: HOP-92 NSCLC
# LOX IMVI melanoma = system: LOX IMVI melanoma
# 786-0 renal = system: 786-0 renal
# NCI-H460 lung = system: NCI-H460 lung
# HL-60(TB) leukemia = system: HL-60(TB) leukemia
# ACHN renal = system: ACHN renal
# RPMI-8226 leukemia = system: RPMI-8226 leukemia
# KM12 colon = system: KM12 colon
# MOLT-4 leukemia = system: MOLT-4 leukemia
# A549 NSCLC = system: A549 NSCLC
# HCC-2998 colon = system: HCC-2998 colon
# K-562 leukemia = system: K-562 leukemia
# OVCAR-3 ovarian = system: OVCAR-3 ovarian
# MALME-3M melanoma = system: MALME-3M melanoma
# HOP-62 NSCLC = system: HOP-62 NSCLC
# OVCAR-5 ovarian = system: OVCAR-5 ovarian
# SK-MEL-5 melanoma = system: SK-MEL-5 melanoma
# OVCAR-8 ovarian = system: OVCAR-8 ovarian
# A498 renal = system: A498 renal
# DU-145 prostate = system: DU-145 prostate
# MDA-N = system: MDA-N
# T-47D breast = system: T-47D breast
# SK-MEL-2 melanoma = system: SK-MEL-2 melanoma
# SNB-75 CNS = system: SNB-75 CNS
# NCI-H226 lung = system: NCI-H226 lung
# PC-3 prostate = system: PC-3 prostate
# SN12C renal = system: SN12C renal
# SF-539 CNS = system: SF-539 CNS
# UACC-62 melanoma = system: UACC-62 melanoma
# MDA-MB-231 breast = system: MDA-MB-231 breast
# SW-620 colon = system: SW-620 colon
# SK-MEL-28 melanoma = system: SK-MEL-28 melanoma
# SK-OV-3 ovarian = system: SK-OV-3 ovarian
# COLO 205 colon = system: COLO 205 colon
# NCI-H522 lung = system: NCI-H522 lung
# NCI/ADR-RES ovarian = system: NCI/ADR-RES ovarian
# SF-268 CNS = system: SF-268 CNS
# BT-549 breast = system: BT-549 breast
# UACC-257 melanoma = system: UACC-257 melanoma
# M14 melanoma = system: M14 melanoma
# NCI-H23 lung = system: NCI-H23 lung
# EKVX NSCLC = system: EKVX NSCLC
# MCF7 breast = system: MCF7 breast
# SNB-19 CNS = system: SNB-19 CNS
# TK-10 renal = system: TK-10 renal
compound,measurement,setting,value
C/C(=N/c1[nH]c(=O)cc2c1C(=O)CC2)N(C)C,TGI,HT29 colon,> 200 µM
same,TGI,HCT-15 colon,> 200 µM
same,TGI,U251 CNS,> 200 µM
same,TGI,IGROV1 ovarian,> 200 µM
same,TGI,HS 578T breast,> 200 µM
same,TGI,OVCAR-4 ovarian,> 200 µM
same,TGI,SF-295 CNS,> 200 µM
same,TGI,CAKI-1 renal,> 200 µM
same,TGI,RXF 393 renal,> 200 µM
same,TGI,HCT-116 colon,> 200 µM
same,TGI,UO-31 renal,> 200 µM
same,TGI,CCRF-CEM leukemia,> 200 µM
same,TGI,MDA-MB-435,> 200 µM
same,TGI,HOP-92 NSCLC,> 200 µM
same,TGI,LOX IMVI melanoma,> 200 µM
same,TGI,786-0 renal,> 200 µM
same,TGI,NCI-H460 lung,> 200 µM
same,TGI,HL-60(TB) leukemia,> 200 µM
same,TGI,ACHN renal,> 200 µM
same,TGI,RPMI-8226 leukemia,> 200 µM
same,TGI,KM12 colon,> 200 µM
same,TGI,MOLT-4 leukemia,> 200 µM
same,TGI,A549 NSCLC,> 200 µM
same,TGI,HCC-2998 colon,> 200 µM
same,TGI,K-562 leukemia,> 200 µM
same,TGI,OVCAR-3 ovarian,> 200 µM
same,TGI,MALME-3M melanoma,> 200 µM
same,TGI,HOP-62 NSCLC,> 200 µM
same,TGI,OVCAR-5 ovarian,> 200 µM
same,TGI,SK-MEL-5 melanoma,> 200 µM
same,TGI,OVCAR-8 ovarian,> 200 µM
same,TGI,A498 renal,> 200 µM
same,TGI,DU-145 prostate,> 200 µM
same,TGI,MDA-N,> 200 µM
same,TGI,T-47D breast,> 200 µM
same,TGI,SK-MEL-2 melanoma,> 200 µM
same,TGI,SNB-75 CNS,> 200 µM
same,TGI,NCI-H226 lung,> 200 µM
same,TGI,PC-3 prostate,> 200 µM
same,TGI,SN12C renal,> 200 µM
same,TGI,SF-539 CNS,> 200 µM
same,TGI,UACC-62 melanoma,> 200 µM
same,TGI,MDA-MB-231 breast,> 200 µM
same,TGI,SW-620 colon,> 200 µM
same,TGI,SK-MEL-28 melanoma,> 200 µM
same,TGI,SK-OV-3 ovarian,> 200 µM
same,TGI,COLO 205 colon,> 200 µM
same,TGI,NCI-H522 lung,> 200 µM
same,TGI,NCI/ADR-RES ovarian,> 200 µM
same,TGI,SF-268 CNS,> 200 µM
same,TGI,BT-549 breast,> 200 µM
same,TGI,UACC-257 melanoma,> 200 µM
same,TGI,M14 melanoma,> 200 µM
same,TGI,NCI-H23 lung,> 200 µM
same,TGI,EKVX NSCLC,> 200 µM
same,TGI,MCF7 breast,> 200 µM
same,TGI,SNB-19 CNS,> 200 µM
same,TGI,TK-10 renal,> 200 µM
CC1C2(C)OC(=N)C(C#N)(C(C)O2)C1(C#N)C#N (stereo not given),TGI,HT29 colon,> 100 µM
same,TGI,HCT-15 colon,28.8 µM
same,TGI,U251 CNS,50 µM
same,TGI,IGROV1 ovarian,> 100 µM
same,TGI,HS 578T breast,> 100 µM
same,TGI,SF-295 CNS,> 100 µM
same,TGI,CAKI-1 renal,26.4 µM
same,TGI,RXF 393 renal,35.7 µM
same,TGI,HCT-116 colon,65 µM
same,TGI,UO-31 renal,> 100 µM
same,TGI,CCRF-CEM leukemia,51.3 µM
same,TGI,HOP-92 NSCLC,37.6 µM
same,TGI,LOX IMVI melanoma,41.4 µM
same,TGI,786-0 renal,62 µM
same,TGI,NCI-H460 lung,42.8 µM
same,TGI,HL-60(TB) leukemia,41.1 µM
same,TGI,ACHN renal,> 100 µM
same,TGI,KM12 colon,> 100 µM
same,TGI,MOLT-4 leukemia,> 100 µM
same,TGI,A549 NSCLC,> 100 µM
same,TGI,HCC-2998 colon,50.5 µM
same,TGI,K-562 leukemia,> 100 µM
same,TGI,OVCAR-3 ovarian,51.5 µM
same,TGI,MALME-3M melanoma,62.3 µM
same,TGI,OVCAR-5 ovarian,> 100 µM
same,TGI,SK-MEL-5 melanoma,25.8 µM
same,TGI,OVCAR-8 ovarian,> 100 µM
same,TGI,A498 renal,> 100 µM
same,TGI,DU-145 prostate,87 µM
same,TGI,MDA-N,36.1 µM
same,TGI,T-47D breast,> 100 µM
same,TGI,SK-MEL-2 melanoma,46.6 µM
same,TGI,SNB-75 CNS,> 100 µM
same,TGI,NCI-H226 lung,> 100 µM
same,TGI,PC-3 prostate,> 100 µM
same,TGI,SN12C renal,29.8 µM
same,TGI,SF-539 CNS,47.1 µM
same,TGI,UACC-62 melanoma,43.8 µM
same,TGI,MDA-MB-231 breast,41.6 µM
same,TGI,SW-620 colon,43 µM
same,TGI,SK-MEL-28 melanoma,88.6 µM
same,TGI,SK-OV-3 ovarian,> 100 µM
same,TGI,COLO 205 colon,24.5 µM
same,TGI,NCI/ADR-RES ovarian,> 100 µM
same,TGI,SF-268 CNS,> 100 µM
same,TGI,BT-549 breast,92.5 µM
same,TGI,UACC-257 melanoma,46 µM
same,TGI,M14 melanoma,35.8 µM
same,TGI,NCI-H23 lung,86.8 µM
same,TGI,EKVX NSCLC,> 100 µM
same,TGI,MCF7 breast,61.9 µM
same,TGI,TK-10 renal,> 100 µM
